Results reported in patent US20220242846A1, “ISOINDOLINONE COMPOUNDS” (Monte Rosa Therapeutics AG, priority 2019, published 2022).

How the values were obtained:
[1] = molecular target: T1, Full length wild-type cereblon CRBN (Homo sapiens, UniProt Q96SW2); experiment: Fluorescence polarization (FP) assay indicating cereblon binding; settings: CRBN 80.0 nM, fluorescent probe 5 nM, FP measured after 12 hours; read-out: rFP IC50
T1 construct: Full length wild-type cereblon CRBN (80.0 nM, 10 μL) was incubated in assay buffer
T1 sequence (Q96SW2 whole entry): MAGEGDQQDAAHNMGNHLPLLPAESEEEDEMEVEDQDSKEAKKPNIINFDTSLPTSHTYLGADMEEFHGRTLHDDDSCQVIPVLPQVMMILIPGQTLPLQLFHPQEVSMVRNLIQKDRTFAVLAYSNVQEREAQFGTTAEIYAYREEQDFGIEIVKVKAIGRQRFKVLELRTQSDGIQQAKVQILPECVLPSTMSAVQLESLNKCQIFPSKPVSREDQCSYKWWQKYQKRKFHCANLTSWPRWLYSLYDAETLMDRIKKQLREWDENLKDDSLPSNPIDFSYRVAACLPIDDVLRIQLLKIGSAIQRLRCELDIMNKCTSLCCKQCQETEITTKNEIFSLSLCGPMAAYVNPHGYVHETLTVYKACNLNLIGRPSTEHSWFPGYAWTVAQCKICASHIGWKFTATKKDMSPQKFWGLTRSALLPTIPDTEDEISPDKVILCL
Procedure, shortened: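 Full-length wild-type human CRBN (80.0 nM) preincubated 30 min at room temperature with compound (12-point curve, 300-0.937 or 3000-9.3 nM) in HEPES pH 8.0, NaCl, TCEP, Tween 20. Thalidomide-based Cy5-type probe then added at 5 nM final; FP read after 12 h (ex 590, em 675 nm), normalized to DMSO, IC50 derived.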

IKZF1 = molecular target: T2, IKZF1 (Homo sapiens, UniProt Q13422); experiment: Selectivity determination by Western Blot assay in MM1S cells: IKZF1; format: cell-based; parameters: key: A represents a no degradation observed at 30 μM; B represents trace degradation at 30 μM (below 20%); C represents weak degradation at 30 μM (below 50%); D represents degradation at 30 μM (>90%); E represents degradation at 3 μM (>90%); F represents degradation at 0.3 μM (>90%); settings: MM1S cells, 0.3, 3 and 30 μM, 6 hours
T2 construct: MM1S cells were purchased from ATCC (cat. Number CRL-2974); endogenous in cells; host or cells: MM1S (ATCC CRL-2974)
T2 sequence (Q96SW2 whole entry partner): as the sequence (Q96SW2 whole entry) above
T2 sequence (Q16531 2-1140 partner limits assumed): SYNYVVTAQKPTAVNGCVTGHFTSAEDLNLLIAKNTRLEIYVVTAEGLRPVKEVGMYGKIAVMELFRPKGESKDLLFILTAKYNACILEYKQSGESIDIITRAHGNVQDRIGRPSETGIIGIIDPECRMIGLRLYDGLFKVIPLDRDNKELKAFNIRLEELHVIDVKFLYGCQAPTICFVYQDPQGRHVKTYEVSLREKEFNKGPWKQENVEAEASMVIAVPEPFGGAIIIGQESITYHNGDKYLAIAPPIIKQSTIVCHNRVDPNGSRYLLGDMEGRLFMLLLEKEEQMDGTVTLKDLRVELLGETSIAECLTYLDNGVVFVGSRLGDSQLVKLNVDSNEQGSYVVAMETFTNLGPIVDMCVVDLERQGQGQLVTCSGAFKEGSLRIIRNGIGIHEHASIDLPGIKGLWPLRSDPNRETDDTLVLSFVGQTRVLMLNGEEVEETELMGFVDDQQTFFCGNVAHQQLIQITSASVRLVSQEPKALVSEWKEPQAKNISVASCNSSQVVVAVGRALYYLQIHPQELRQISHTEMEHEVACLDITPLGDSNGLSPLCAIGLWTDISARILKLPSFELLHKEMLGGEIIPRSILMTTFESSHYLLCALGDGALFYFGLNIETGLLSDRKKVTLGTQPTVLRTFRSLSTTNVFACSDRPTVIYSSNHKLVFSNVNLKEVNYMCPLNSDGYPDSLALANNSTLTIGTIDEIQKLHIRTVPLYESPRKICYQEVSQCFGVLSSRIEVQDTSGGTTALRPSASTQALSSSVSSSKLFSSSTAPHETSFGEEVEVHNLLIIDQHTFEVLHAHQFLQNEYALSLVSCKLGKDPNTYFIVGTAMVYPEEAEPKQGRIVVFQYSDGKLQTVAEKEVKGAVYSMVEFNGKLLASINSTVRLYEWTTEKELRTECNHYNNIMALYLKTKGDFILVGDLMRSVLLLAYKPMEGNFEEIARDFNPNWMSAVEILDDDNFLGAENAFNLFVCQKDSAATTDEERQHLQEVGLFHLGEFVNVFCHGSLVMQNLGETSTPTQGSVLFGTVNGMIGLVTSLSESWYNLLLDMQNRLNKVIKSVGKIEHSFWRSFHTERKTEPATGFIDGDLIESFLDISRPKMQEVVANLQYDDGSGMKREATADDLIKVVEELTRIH
T2 sequence (Q13422 whole entry): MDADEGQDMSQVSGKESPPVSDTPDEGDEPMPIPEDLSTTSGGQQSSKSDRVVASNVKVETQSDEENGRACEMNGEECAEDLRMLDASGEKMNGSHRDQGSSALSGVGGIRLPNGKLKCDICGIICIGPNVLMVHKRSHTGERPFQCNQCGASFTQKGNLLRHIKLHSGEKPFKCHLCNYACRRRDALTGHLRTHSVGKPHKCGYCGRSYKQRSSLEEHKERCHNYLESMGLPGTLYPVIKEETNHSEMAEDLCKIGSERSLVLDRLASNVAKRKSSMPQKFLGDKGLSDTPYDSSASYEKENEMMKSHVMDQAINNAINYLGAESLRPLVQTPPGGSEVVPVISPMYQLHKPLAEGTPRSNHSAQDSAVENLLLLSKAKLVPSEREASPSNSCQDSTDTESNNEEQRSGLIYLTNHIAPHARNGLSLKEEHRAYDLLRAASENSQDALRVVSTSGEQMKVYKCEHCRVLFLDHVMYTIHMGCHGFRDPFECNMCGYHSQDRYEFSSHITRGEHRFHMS
Method: (§1) CK1alpha/Ikaros/Aiolos/ZFP91 Selectivity determination by Western Blot Assay
(§2) MM1S cells were purchased from ATCC (cat. Number CRL-2974), sub-cultured in 90% RPMI 1640 with 10% FBS, supplemented with 1× P/S and incubated at 37° C., 5% CO2. Compounds were stored as 10 mM DMSO stock. For the assay, MM1S cells (3 million cells/well) were plated in 6-well plates and incubated over night. Cells were treated with respective compounds using a serial dilution: 0.3 μM, 3 μM and 30 μM as well as a vehicle only (DMSO) control for 6 hours. Media with suspension cells was subsequently transferred to 15 mL conical tubes, wells rinsed twice with ice-cold PBS and merged with cell suspension in respective 15 mL conical tube. Cells were spinned down, supernatant aspirated, pellets resuspended in ice-cold PBS and transferred to microtubes. Cells were spinned down, supernatant aspirated and pellets resuspended in 120 μL RIPA lysis buffer supplemented with protease and phosphatase inhibitors. Cell lysates were incubated on ice for 20 minutes followed by centrifugation at >20,000×g for 5 mM. Supernatants were transferred to fresh microtubes and stored at −80° C. Total protein concentration was determined using a BCA assay with a BSA standard curve and concentration of all samples was adjusted to 1 mg/mL. 25 μL 4× LDS sample buffer supplemented with 100 mM DTT was added to 75 μL sample. Samples were centrifuged (8,000×g, 1 min) and incubated at 95° C. for […] followed by another centrifugation step (8,000×g, 1 mM). 20 μL of each sample was loaded on a 4-12% gel alongside a protein molecular weight marker. Gels were run in the presence of MOPS buffer at 80 Volts for […], followed by 120 Volts for 1.5 h and proteins subsequently transferred onto nitrocellulose membranes at 20 Volts for 7 mM using an iBlot2 Gel Transfer Device. Membranes were then cut horizontally into two pieces, covering 80-50 kDa and 50-25 kDa. Blocking the membranes was performed by gently shaking in 5% (w/v) skim milk in TSB-T for 1 hr at room temperature. All primary antibodies were used at a 1/1000 in 5% (w/v) BSA dissolved in TBST and incubated with membranes over night at 4° C. After three washes with 1× TBST for 5 mM, HRP-coupled secondary antibodies diluted in 5% (w/v) BSA/TBST (Goat Anti-Rb IgG, dil. 1/10,000; Goat Anti-Mouse IgG, dil. 1/5000) were added for 1 hr at room temperature. After three washes with 1× TBST (5 minutes each), membranes were incubated with ECL reagent for 1 mM at room temperature. Chemiluminescence signals were then detected using a LAS-4000 system with default settings and signals quantified using Image Studio Lite software (version 5.2). Membrane parts previously incubated with antibody against CK1alpha were stripped off antibodies by incubating with stripping buffer for 30 minutes followed by three washed with TBST (5 mM each), blocking with 5% (w/v) skim milk for 1 hr, and incubation with primary antibody against GAPDH overnight at 4° C. Subsequent washes, incubation with secondary antibody and signal acquisition were performed as described above.
(§3) Table 5 assigns each compound a code indicating the ability for the degradation of IKZF1, IKZF3, CK1alpha and ZFP91: A, B, C, D, E or F. According to the code, A represents a no degradation observed at 30 μM, B represents trace degradation at 30 μM (below 20%), C represents weak degradation at 30 μM (below 50%), D represents degradation at 30 μM (>90%), E represents degradation at 3 μM (>90%) and F represents degradation at 0.3 μM (>90%).

ZFP91 = molecular target: T3, ZFP91 (Homo sapiens, UniProt Q96JP5); experiment: Selectivity determination by Western Blot assay in MM1S cells: ZFP91; format: cell-based; parameters: key: A represents a no degradation observed at 30 μM; B represents trace degradation at 30 μM (below 20%); C represents weak degradation at 30 μM (below 50%); D represents degradation at 30 μM (>90%); E represents degradation at 3 μM (>90%); F represents degradation at 0.3 μM (>90%); settings: MM1S cells, 0.3, 3 and 30 μM, 6 hours
T3 construct: MM1S cells were purchased from ATCC (cat. Number CRL-2974); endogenous in cells; host or cells: MM1S (ATCC CRL-2974)
T3 sequence (Q96SW2 whole entry partner): as the sequence (Q96SW2 whole entry) above
T3 sequence (Q16531 2-1140 partner limits assumed): as the sequence (Q16531 2-1140 partner limits assumed) above
T3 sequence (Q96JP5 2-570 limits assumed): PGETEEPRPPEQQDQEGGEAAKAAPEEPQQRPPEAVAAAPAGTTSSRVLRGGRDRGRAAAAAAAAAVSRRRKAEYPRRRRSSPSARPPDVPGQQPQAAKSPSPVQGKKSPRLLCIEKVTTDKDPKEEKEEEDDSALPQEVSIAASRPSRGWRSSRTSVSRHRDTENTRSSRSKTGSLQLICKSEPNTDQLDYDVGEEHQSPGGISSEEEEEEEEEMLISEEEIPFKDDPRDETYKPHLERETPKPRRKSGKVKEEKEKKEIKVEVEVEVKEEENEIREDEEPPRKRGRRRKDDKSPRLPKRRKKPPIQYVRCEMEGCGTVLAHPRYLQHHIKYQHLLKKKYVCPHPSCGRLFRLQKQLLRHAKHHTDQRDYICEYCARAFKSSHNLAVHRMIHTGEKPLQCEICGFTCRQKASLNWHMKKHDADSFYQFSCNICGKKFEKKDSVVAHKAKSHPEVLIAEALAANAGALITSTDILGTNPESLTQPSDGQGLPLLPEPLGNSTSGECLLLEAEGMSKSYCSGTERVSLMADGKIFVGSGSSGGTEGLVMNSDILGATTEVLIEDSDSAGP
Method: as §1, §2, §3

GSPT1 = GSPT1 (Homo sapiens, UniProt P15170+Q96SW2); experiment: Selectivity determination by Western Blot assay in MM1S cells: GSPT1; format: cell-based; parameters: MM1S cells were purchased from ATCC (cat. Number CRL-2974); endogenous in cells; host or cells: MM1S (ATCC CRL-2974); settings: MM1S cells, 0.3, 3 and 30 μM, 6 hours
Sequence of GSPT1 (P15170 whole entry): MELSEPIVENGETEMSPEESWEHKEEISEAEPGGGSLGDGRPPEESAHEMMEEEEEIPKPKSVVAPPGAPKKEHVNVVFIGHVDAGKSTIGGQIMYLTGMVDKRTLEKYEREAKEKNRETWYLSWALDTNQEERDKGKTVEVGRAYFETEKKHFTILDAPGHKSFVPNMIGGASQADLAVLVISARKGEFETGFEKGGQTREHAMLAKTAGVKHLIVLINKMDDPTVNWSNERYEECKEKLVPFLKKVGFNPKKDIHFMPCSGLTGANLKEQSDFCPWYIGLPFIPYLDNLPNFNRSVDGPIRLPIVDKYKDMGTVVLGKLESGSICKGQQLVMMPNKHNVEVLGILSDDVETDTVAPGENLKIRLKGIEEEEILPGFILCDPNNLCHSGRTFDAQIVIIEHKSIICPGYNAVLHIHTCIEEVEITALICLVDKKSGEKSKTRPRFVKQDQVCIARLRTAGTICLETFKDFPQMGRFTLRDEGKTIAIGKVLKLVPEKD
Sequence of GSPT1 (Q96SW2 whole entry): as the sequence (Q96SW2 whole entry) above
Sequence of GSPT1 (Q16531 2-1140 partner limits assumed): as the sequence (Q16531 2-1140 partner limits assumed) above
Method: [Worded in the source for another target; this target is reported under the same test.] as §1, §2, §3

Compound | IC50 [1] [nM] | IKZF1 degradation code (IKZF1) | ZFP91 degradation code (ZFP91) | GSPT1 degradation code (GSPT1)
Cc1ccc(NC(=O)NCc2ccc3c(c2)C(=O)N(C2CCC(=O)NC2=O)C3)cc1Cl (stereo not shown) [Compound 8] | 468 | A | B (B represents trace degradation at 30 μM (below 20%)) | F (F represents degradation at 0.3 μM (>90%))
Cc1c(Cl)cc(NC(=O)NCc2ccc3c(c2)C(=O)N(C2CCC(=O)NC2=O)C3)cc1CN(C)C (stereo not shown) [Compound 75] | 284 | A | A | E (E represents degradation at 3 μM (>90%))
Cc1c(Cl)cc(NC(=O)NCc2ccc3c(c2)C(=O)N(C2CCC(=O)NC2=O)C3)cc1CN1CCOCC1 (stereo not shown) [Compound 82] | 372 | A | A | F (F represents degradation at 0.3 μM (>90%))
Cc1cc(C)c(NC(=O)NCc2ccc3c(c2)C(=O)N(C2CCC(=O)NC2=O)C3)cc1Cl (stereo not shown) [Compound 85] | 214 | A | A | E (E represents degradation at 3 μM (>90%))
Cc1ccc(NC(=O)NCc2ccc3c(c2)C(=O)N(C2CCC(=O)NC2=O)C3)c(Cl)c1Cl (stereo not shown) [Compound 87] | 278 | A | A | E (E represents degradation at 3 μM (>90%))
O=C1CCC(N2Cc3ccc(CNC(=O)Nc4cccc(CN5CCOCC5)c4)cc3C2=O)C(=O)N1 (stereo not shown) [Compound 105] | 295 | B (B represents trace degradation at 30 μM (below 20%)) | B (B represents trace degradation at 30 μM (below 20%)) | E (E represents degradation at 3 μM (>90%))
Cc1c(Cl)cc(NC(=O)NCc2ccc3c(c2)C(=O)N(C2CCC(=O)NC2=O)C3)cc1CC1COCOC1 (stereo not shown) [Compound 132] | 381 | A | C (C represents weak degradation at 30 μM (below 50%)) | F (F represents degradation at 0.3 μM (>90%))
